pIC50: −log10 of the molar value.
Assays:
[1] = tested on: PDE4 (human promonocytic U937 cells); experiment: PDE4 inhibition, Phosphodiesterase [3H] cAMP SPA enzyme assay with U937 extract; format: biochemical; details: 1 μM [3H] cAMP
Text: A test compound may be screened for activity against 11 of the major classes of mammalian cyclic nucleotide phosphodiesterase (termed PDE 1 through 11). These PDE's may use cAMP or cGMP or both cyclic nucleotides as substrates. […] PDE's for some of the various assays may be fully or partially purified from the following cells/tissues: PDE 1 (bovine heart), PDE 2 (human platelets), PDE 3 (human platelets), PDE4 (human promonocytic U937 cells) and PDE 5 (human platelets).
In the following descriptions, amounts are exemplary, and may be varied. […] Sonicated cell extracts are then centrifuged at 70,000 g for 30 minutes and supernatants removed. Sucrose is added to a final concentration of 0.25 M, then the extracts are aliquoted and stored at −80° C.
Briefly, the assay is run for 60 minutes at room temperature in 50 μL volumes in 1 μM [^3H] cAMP, 50 mM Tris Cl, 10 mM MgCl2 pH 7.5. U937 extract is added such that less than 10% of substrate was consumed. Test compound or vehicle is added to the desired concentration. […] Reactions are performed in duplicate. Reactions are terminated with 50 μl of Yttrium SPA beads and then counted on a Packard Scintillation counter (TopCount™) for 1 minute.

[2] = target: T1, HARBS site of PDE4; experiment: Displacement of [3H]-ROLIPRAM from the high affinity binding site (HARBS) in mouse brain membranes; details: for pIC50: mouse brain membranes, [3H]-ROLIPRAM displacement
T1 construct: HARBS IC50; other: mouse brain membranes, [3H]-ROLIPRAM displacement; other: mouse brain; other: relative to ROLIPRAM (25, 26) or
Method: (§1) In order to perform this assay, female CD1 mice are sacrificed via the intraperitoneal injection of 100 μL ethanol, and the brain tissue is homogenized in 5 mL of ice-cold Tris-HCl, pH 8.00 supplemented with 1.2 mM MgCl2, 1 mM benzamidine (Sigma; Catalogue No. B 6506) and 0.1 mM PMSF (Sigma; Catalogue No. P 7626). The suspension is centrifuged twice at 30,000×G at 4° C. and then the supernatant discarded. The pellet is resuspended in buffer, and adjusted to a protein concentration of 0.5 mg/mL. Compounds to be tested are dissolved in DMSO and pipetted in triplicate into a 96 well microplate at concentrations ranging from 1 to 30,000 nM. […] The plate is incubated at 4° C. for 1 hour. Contents of the plate are aspirated through a Whatman GF/C filterplate, and rinsed with 4×200 μL ice-cold buffer. The plate is dried overnight, and then 30 μL of Microscint 20 (Packard; Catalogue No. 6013621) is added to each well, and plate is read in the scintillation counter with a sampling time of 2 minutes/well. […] Triplicate determinations should be performed at each concentration.

[3] = tested on: HARBS site of PDE4; experiment: as above; details: for Ratio (PDE4/HARBS): ratio of PDE4 catalytic IC50 to HARBS IC50
Method: as §1

[4] = tested on: ferret model of emesis; experiment: Emetic threshold after intravenous infusion in the ferret model of emesis; format: in vivo, ferret (Mustela putorius furo); details: for Emetic Threshold: 5 minute intravenous infusion, 3 hour observation
Text: The most recognized pre-clinical animal model for emesis is the ferret. The ferret undergoes a very characteristic, reproducible and well-documented series of behavioral responses, including backward walking, pawing of the mouth, arching of the back, retching and vomiting when dosed with an emetogenic compound. With respect to PDE4 inhibitors their emetogenic potential has been correlated with the ability of compounds to bind to a conformer of the enzyme to which ROLIPRAM™ binds with nanomolar affinity (the HARBS binding site). The central nervous system (CNS) and emetic effects of PDE4 inhibitors are therefore thought in large part to be due to the interaction of these compounds with this particular conformer of PDE4 which is especially prevalent in both the central and peripheral nervous system as well as in cells of the lumen of the gastrointestinal tract (i.e., parietal cells of the stomach).
Adult male ferrets (Mustela putorius furo, sable, 0.75-1.5 kg, Marshall Farms, USA) were quarantined and acclimated to the testing facility for seven days prior to initiation of the study. For intravenous infusion dosing, a catheter was surgically inserted in the jugular vein a minimum of 14 hours prior to administration of test articles and the catheter was maintained for patency by flushing with heparin solution daily. After surgery for catheter insertion the ferrets were individually housed in cages. Animals were fasted 12-16 hours prior to dosing and during the behavioral assessment period. They were returned to normal food diet after the observation periods. Animals found acceptable for inclusion in the study were randomly assigned to the each of the study groups (n=3 for each of the two treatment groups and n=3 for the vehicle negative control group).
Test compounds (ROLIPRAM™ and Compound 25) were freshly dissolved on the day of dosing in the vehicle, polyethylene glycol (PEG) 200 (Sigma catalogue number P-3015), to the required concentration in order to achieve the target dose. Animals in the control (PEG 200) and treatment (ROLIPRAM™ or Compound 25) groups were administered the dosing formulation at 3 ml/kg by intravenous infusion over a 5 minute period via the catheter inserted in the jugular. Continual observation for signs of emetic behavior were begun for each of the animals in the study groups immediately following completion of the 5 minute dosing period and for a period of three hours. Sequential recordings of emetic behaviour were noted on a separate data collection sheet for each animal which included the time of onset of each event as well as the duration and nature of the event (i.e., retching, gagging, vomiting, back arching, backward walking etc.).
The target doses for each of the test articles are shown below in Table 3. If animals expressed no emetic behaviour at the lowest dosage then animals were dosed again with semi-log increasing doses of test article and the three hour observation period repeated until the emetic threshold (lowest of test doses causing emesis) was reached or until the highest of the 4 target doses was completed. There was a 24 hr. washout period between each of the successive ascending doses of test article to allow the compound to clear the animals' system. […] If the emetic response was minimal at a particular dose level then the next dose level could be performed to confirm the threshold level.

| pIC50 [1] | reduction of HARBS binding affinity relative to parent non-benzylated compound ([2]; relative to ROLIPRAM (25, 26) or ARIFLO (41)) [fold] | Compound | pIC50 [2] | Ratio (PDE4/HARBS) [3] | Emetic Threshold ([4]; ferrets) [mg/kg] | Emetic Threshold ([4]; ferrets, listed as compound 25) | higher doses required to achieve emesis compared to rolipram ([4]; ferrets, i.v. infusion) | emetic behaviour ([4]; up to and including highest dose level tested (3 mg/kg) i.v. infusion) | greater affinity to high affinity site than the concentration required for half-maximal inhibition of PDE4 catalytic activity [3] [fold] | emetic signs ([4]; 0.1 mg/kg i.v. infusion) | ferrets exhibiting a definite emetic response ([4]; 0.3 mg/kg i.v. infusion, n=3) | mild retches observed ([4]; 0.3 mg/kg i.v., in one ferret, over 9 minutes starting at 10 minutes post-dosing) |
| --- | --- | --- | --- | --- | --- | --- | --- | --- | --- | --- | --- | --- |
| 5.83 |  | COc1cc(CC2C(=O)NCC2c2ccc(OC)c(OC3CCCC3)c2)ccc1O (centres unmarked) [Compound 26] |  |  |  |  |  |  |  |  |  |  |
| 6.40 | 56 | COc1cc(CC2C(=O)NCC2c2ccc(OC)c(OC3CCCC3)c2)ccc1OCc1ccccc1 (centres unmarked) [Compound 25] | 6.44 | 1.1 | >3.0 | greater than 3 mg/kg | at least 10 fold | no emetic behaviour whatsoever |  |  |  |  |
|  |  | COc1ccc(C2CNC(=O)C2)cc1OC1CCCC1 (centres unmarked) [ROLIPRAM ™, reference compound] |  |  | 0.3 |  |  |  | 65 | Emetic signs were also evident | one of the three ferrets | 5 |

| Compound | pIC50 [1] | reduction of HARBS binding affinity relative to parent non-benzylated compound ([2]; relative to ROLIPRAM (25, 26) or ARIFLO (41)) [fold] | pIC50 [2] | Ratio (PDE4/HARBS) [3] | Emetic Threshold ([4]; ferrets) [mg/kg] | Emetic Threshold ([4]; ferrets, listed as compound 25) | higher doses required to achieve emesis compared to rolipram ([4]; ferrets, i.v. infusion) | emetic behaviour ([4]; up to and including highest dose level tested (3 mg/kg) i.v. infusion) | greater affinity to high affinity site than the concentration required for half-maximal inhibition of PDE4 catalytic activity [3] [fold] | emetic signs ([4]; 0.1 mg/kg i.v. infusion) | ferrets exhibiting a definite emetic response ([4]; 0.3 mg/kg i.v. infusion, n=3) | mild retches observed ([4]; 0.3 mg/kg i.v., in one ferret, over 9 minutes starting at 10 minutes post-dosing) |
| --- | --- | --- | --- | --- | --- | --- | --- | --- | --- | --- | --- | --- |
| COc1ccc([C@]2(C#N)CC[C@@H](C(=O)O)CC2)cc1OC1CCCC1 [ARIFLO ™, reference compound] | 6.74 |  | 7.12 | 2.4 |  |  |  |  |  |  |  |  |

From patent publication US7459479B2, “Benzylated PDE4 inhibitors” (Biolipox AB, priority 2000, dated 2008)
